Assay results as given in patent publication US7329638B2, “Drug delivery compositions” (priority 2003, dated 2008).
Several values for one entry are separate records, joined by “and”; a condition that tells them apart may be missing. Identical values can stand only once.

Experiments:
MCF7/ADR cells = test: MTT cytotoxicity and drug accumulation in doxorubicin resistant MCF7/ADR cells; format: cell-based; conditions: for IC50: Homo sapiens, NCI/ADR-RES, 48 h, MCF7/ADR, 48 hrs exposure, MTT
Method: In some embodiments, monolayer doxorubicin sensitive (MCF7) and resistant (MCF7/ADR) cells were then exposed to either doxorubicin or TAT-Dox conjugates at various concentrations (up to 100 μM) for 48 hrs in the presence or absence of 10 μM verapamil. Cell viability was measured by MTT assay. […] Verapamil, a P-glycoprotein inhibitor, was able to restore most of the cytotoxic activities of free doxorubicin.

[1] = oral administration; cited from earlier work
implanted tumors = test: Tumor regression in tumor-bearing mice, intratumoral injection (RNase series); format: in vivo; conditions: excised thirty days (4 weeks) after initial treatment
Method: Drugs were administered by intratumoral injection. Injections were started 3 weeks after tumor cell implantation when tumors reached the size about 100 mm^3. Thirty days after initial treatment, mice were sacrificed and their tumors were excised, weighed, and photographed.
For example, in test animals an average tumor weight of 2.92±0.47 g (N=5) was observed 4 weeks after treatment (Lane 4; FIG. 11B) that was statistically indistinguishable from the value of 3.16±0.65 g (Lane 2 in FIG. 11B) of the control group without treatment. […] The addition of protamine to the heparin-inhibited TAT-RNase conjugates completely reversed inhibition and tumor growth was regressed to an insignificant weight of 0.09±0.05 g (Lane 5; FIG. 11B).

MCF-7 cells [2] = test: Cell translocation and uptake kinetics of FITC-labeled LMWP and TAT; format: cell-based
Method: Cells were incubated with the FITC-labeled peptides and then lysed. Fluorescence intensities in the supernatants were measured.
In some embodiments, purified LMWP was prepared according to the method described in L.C. Chang et al., AAPS PharmSci., 3(2) Article 17 [2001]. In some additional embodiments, cell internalization characteristics of TAT and LMWP were compared by confocol microscopy using FITC-labeled peptides. Like TAT, after 15 min of incubation with MCF-7 cells at 37° C., more than 70% of the FITC-labeled LMWP entered the cytosol of the MCF-7 cells (FIG. 13). […] The reason for the difference in cell localization remains unclear, however, while the present invention is not limited to any particular mechanism, it is contemplated that TAT, which contains the sequence of the nuclear localization signal (NLS) peptide, can penetrate into the cell's nucleus either through pores on the nuclear envelope, or via binding with certain cytoplasmic components which confer nuclear localization. (L. Chaloin et al., Biochem. Biophys. Res. Commun., 243:601-608 [1998]; and M. A. Zanta M A et al., Proc. Natl. Acad. Sci. USA, 96:91-96 [1999]). In some embodiments, the localization of TAT and TAT-like peptides can be directed to the cytoplasm or to other sites within the cell by making altering portions of its amino acid sequence. (See e.g., M. M. Gottesman et al., Nature Reviews Cancer, 2:48-58 [2002]). In some preferred embodiments, the sequence of the PTD component/subcomponent of the drug delivery composition is selected or modified (e.g., amino acid sequence altered) so that the composition and the therapeutic molecule(s) being carried are localized to the cytoplasm. The present invention contemplates that in certain embodiments the localization of the drug delivery compositions to the cytoplasm aids in the penetration of the therapeutic molecules throughout the targeted tissue (e.g., from the tumor periphery to the tumor core).
FIG. 14 provides a comparison of the rate of cellular uptake of LMWP and TAT. […]

CT-26 cells = test: Translocation of rhodamine-labeled gelonin by TAT or LMWP (fluorescence microscopy); format: cell-based; conditions: CT-26, 2 hrs incubation
Method: FIGS. 15A and 15B show the translocation of gelonin into the CT-26 cells with the aid of: TAT (FIG. 15A); or LMWP (FIG. 15B). Fluorescent microscopy was conducted on cells treated with rhodamine-labeled TAT- or LMWP-gelonin following 2 hrs of incubation in CT-26 cells.
In some embodiments, studies were preformed to compare the capabilities of LMWP and TAT in protein translocation. In some of these embodiments, the LMWP and TAT peptides were conjugated to gelonin using the PDPH method described herein. To create a -SH group for coupling, LMWP was modified prior to its conjugation by treatment with SPDP and DTT, using the protocol established by J. Carlsson et al., (J. Carlsson et al., Biochem. J., 173:723-737 [1978]). Gelonin was labeled with rhodamine prior to conjugation.

[3] = tested on: CT-26 murine adenocarcinoma colon cancer cells; test: MTT cytotoxicity in CT-26 cells in log-phase culture; format: cell-based; conditions: CT-26, MTT
Method: Various doses of each test compound were added to 96-well culture plates containing approximately 5,000 cells/well. The plates were incubated for 48 hrs at 37° C. under an atmosphere of 5% CO2 in humidified air. Remaining cells were assessed using MTT and compared to untreated control wells. Values shown are means±standard deviation.
Cytotoxicity was measured as described in FIG. 8.
Various doses of each compound were added to 96-well culture plates containing approximately 5,000 cells/well. The plates were incubated for 48 hrs at 37° C. under an atmosphere of 5% CO2 in humidified air in an incubator. Test cells were assessed by MTT assay and then compared to untreated cells in control wells. Values are represented as means±standard deviation. Each experiment was performed in triplicate.
In additional embodiments, the cytotoxicity of gelonin and the TAT-Gel conjugates were examined in CT-26 murine adenocarcinoma colon cancer cells in log-phase culture.

MCF-7 cells [4] = test: Cellular uptake of FITC-labeled gelonin and TAT-Gel (FACS and confocal microscopy); format: cell-based; conditions: MCF-7, FITC label, 10 nM, 1 hr at 37° C.
Method: FIGS. 7A-7D show the cellular uptake of TAT and TAT-Gel conjugates into MCF-7 cells. The left two panels provide confocol microphotograph sections of DIC image and corresponding fluorescent images, whereas right panels show FACS results (ordinate, number of cells, abcissa, fluorescent intensity). Cells were treated with FITC-labeled gelonin (FIG. 7A); TAT-Gel (FIG. 7B); TAT-Gel+heparin (FIG. 7C); and TAT-Gel+heparin and then+protamine (FIG. 7D). Protein concentration was adjusted to 10 nM, and the incubation time was 1 hr at 37° C.
In certain embodiments, the TAT-mediated cell internalization and the cytotoxicity of TAT-Gel were examined in vitro in MCF-7 and CT-26 cell cultures. The membrane-transducing ability of the TAT-Gel conjugates was determined using fluorescence (FITC)-labeled gelonin or TAT-Gel added to the culture media of MCF-7 cells, followed by analysis by both the fluorescence activated cell sorting (FACS) and confocol microscopy. […] On the other hand, almost all of the FITC labels were found inside, and specifically inside the cytosol (see confocol results), of all (˜100%) cells (see the FACS data) within one hour of incubation of the cells with the TAT-Gel conjugates (FIG. 7B). Considering the fact that gelonin exerts its cytotoxic activity via binding with ribosomes and cleaving RNA, this cytosolic localization actually yields beneficial therapeutic affects. […]

CT26 colon carcinoma = test: Tumor regression in CT-26 tumor-bearing mice, intratumoral injection (gelonin series); format: in vivo, BALB/c mice
murine tumor tissues = test: Tumor penetration of rhodamine-labeled gelonin and TAT-Gel; format: in vivo, mice; conditions: tumors isolated at 10 hrs after injection
From the text: FIGS. 18A and 18B show tumor penetration of rhodamine-labeled TAT-Gel conjugates (FIG. 18A), and free gelonin (FIG. 18B). Tumors were isolated at 10 hrs after injection of the rhodamine-labeled TAT-Gel conjugate or free gelonin and then photographed.
To further confirm that TAT-Gel conjugates penetrate into tumor tissues, rhodamine-labeled gelonin was used in several additional in vivo studies. […] The extremely efficient tumor penetration and widespread drug distribution capabilities of the compositions and methods of the present invention are of great significance to anticancer therapy.

## COc1cccc2c1C(=O)c1c(O)c3c(c(O)c1C2=O)C[C@@](O)(C(=O)CO)C[C@@H]3O[C@H]1C[C@H](N)[C@H](O)[C@H](C)O1 [Dox, doxorubicin]
MCF7/ADR cells; Verapamil (10 μM)
  IC50: 6.7 µM
MCF7/ADR cells; without verapamil
  IC50: 45.2 µM
MCF7/ADR cells; MCF7/MDR cells
  IC50 of free doxorubicin relative to Dox-TAT conjugates: ~8 fold
MCF7/ADR cells; MDR cells
  amount of doxorubicin seen in cells by fluorescence microscopy: negligible amount

## N[C@@H](Cc1ccc(O)c(O)c1)C(=O)O [levodopa, L-3,4-dihydroxy-phenylalanine]
[1]
  fraction that penetrates the CNS: less than 1%

## RNase
Implanted tumors
  average tumor mass: 2.92 ± 0.47 g

## TAT: highly cationic 11 amino acid section of the TAT-peptide (YGRKKRRQRRR; SEQ ID NO:6)
MCF-7 cells [2]; MCF-7
  rate of cellular uptake (comparison in words): slightly faster cellular uptake than LMWP
MCF-7 cells [2]; MCF-7, FITC-labeled peptides
  incubation time at which cellular concentration reached a maximum: 30 min
MCF-7 cells [2]; MCF-7, after 30 min incubation
  subcellular localization: primarily localizes in the nucleus
CT-26 cells
  translocation of rhodamine-labeled gelonin into cells: capable of translocating gelonin

## gelonin
[3]
  cytotoxicity / inhibition of cell growth (in words): did not induce cell death
[3]; listed as Gelonin
  cytotoxicity / inhibition of cell growth (in words): did not display any detectable inhibition on cell growth
MCF-7 cells [4]
  cellular uptake (confocal and FACS, in words): virtually no cellular uptake
CT26 colon carcinoma; excised thirty days (four weeks) after initial treatment, intratumoral, 9 treatments
  average tumor mass: 2.63 ± 0.5 g and 2.62 ± 0.53 g
CT26 colon carcinoma; two and four weeks after intratumoral injection
  gross appearance of tumor after treatment: not cytotoxic to the tumor
Murine tumor tissues
  tumor penetration (rhodamine staining of excised tumor): virtually no staining or only sporadic weak staining
